Data on 21 molecules can be found in patent US8063221B2, “Aminoquinolones as GSK-3 inhibitors” (Kyorin Pharmaceutical Co., Ltd., priority 2006, dated 2011).

For the first assay, the target named is T1, recombinant full-length human GSK3β (Homo sapiens, UniProt P49841).
T1 construct: recombinant full-length human GSK3β (Upstate); purchased Upstate
T1 sequence (P49841 whole entry): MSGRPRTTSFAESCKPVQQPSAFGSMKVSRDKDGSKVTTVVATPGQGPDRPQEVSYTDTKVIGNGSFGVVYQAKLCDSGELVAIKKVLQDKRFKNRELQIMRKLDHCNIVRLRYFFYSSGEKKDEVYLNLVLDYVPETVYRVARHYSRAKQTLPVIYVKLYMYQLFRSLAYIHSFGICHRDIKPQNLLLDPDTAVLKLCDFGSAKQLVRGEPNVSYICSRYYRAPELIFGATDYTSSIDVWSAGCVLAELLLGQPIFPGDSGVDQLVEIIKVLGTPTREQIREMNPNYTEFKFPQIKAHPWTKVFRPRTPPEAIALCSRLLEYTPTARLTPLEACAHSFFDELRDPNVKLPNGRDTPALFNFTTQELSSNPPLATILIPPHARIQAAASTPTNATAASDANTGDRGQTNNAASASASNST
In words: Luciferase-coupled cell-free GSK3β kinase assay. The assay is classed as biochemical. Particulars: Table 1. Here is the method: For compounds in Tables 1 and 2, IC50 (μM) for GSK3β enzyme in cell free assay is provided as follows:
Luciferase-Coupled Protein Kinase Assays
All coupled-luciferase assays are performed by using a brief incubation with firefly luciferase (Promega) after completion of the kinase assay. KinaseGlo Plus is used for reading kinase reactions with ATP>10 μM, KinaseGlo for ATP <10 μM. The assay volume in a 384-well plate for the kinase reaction is 30 microliters.
10-25 ng of recombinant full-length human GSK3β (Upstate) is incubated in the presence or absence of compound at varying concentrations for 1 hour at 30 degrees Celsius in 20 mM MOPS, pH 7.0, 10 mM magnesium acetate, 0.2 mM EDTA, 2 mM EGTA, 30 mM magnesium chloride, 62.5 μM phospho-glycogen synthase peptide-2, 5 μM ATP, 10 mM β-glycerol phosphate, 1 mM sodium orthovanadate and 1 mM dithiothreitol. Proceed to KinaseGlo luciferase reaction (see below).
Following the completion of the kinase reaction an equal volume of KinaseGlo or KinaseGlo Plus luciferase reagent (Promega) is added and the luminescence read using a luminescence plate reader within 5-10 minutes. Compound activity is expressed as % inhibition relative to maximal inhibition observed at the maximal dose and IC50 values then calculated using curve fitting software (GraphPad Prizm).
One may read the IC50 as the concentration that inhibits the measured activity by half. As to `CNNC(=O)c1cn(C2CC2)c2c(F)c(NCCCc3ccccc3)c(F)c(N)c2c1=O` [compound 86], the IC50 was over 1000 nM. In the case of `Nc1c(F)c(NCCNC(=O)c2ccc(F)cc2)c(F)c2c1c(=O)c(C(=O)O)cn2C1CC1` [compound 34], the IC50 was in the range of 100 to 500 nM.

Regarding `Nc1c(F)c(NCCNC(=O)c2ccccc2)c(F)c2c1c(=O)ccn2C1CC1` [compound 33], the IC50 is 500 to 1000 nM. Same read-out and setting: the value for `CC1COc2c(NCCCn3ccnc3)c(F)c(N)c3c(=O)c(C(=O)O)cn1c23` (stereo not drawn) [compound 89] was under 100 nM; that for `Nc1c(F)c(NCCc2ccccc2)c(F)c2c1c(=O)ccn2C1CC1` [compound 32] was 500 to 1000 nM. Regarding `N#Cc1ccc(NCCNc2c(F)c(N)c3c(=O)ccn(C4CC4)c3c2F)nc1` [compound 40], the IC50 was 100 to 500 nM. With `Nc1ccc(CCNc2c(F)c(N)c3c(=O)c(C(=O)O)cn(C4CC4)c3c2F)cc1` [compound 2], the 50% inhibitory concentration (IC50) was 500 to 1000 nM.

`Nc1c(F)c(NCCNC(=O)c2ccc(F)cc2)c(F)c2c1c(=O)ccn2C1CC1` [compound 35]: the IC50 fell in the range of 100 to 500 nM.

The same assay, now with this note: Table 2.
Turning to `C[C@H]1COc2c(NCCOc3ccc(-c4ccccc4)cc3)c(F)c(N)c3c(=O)c(C(=O)O)cn1c23` [Example 96], the IC50 is 500 to 1000 nM.

With `C[C@H]1COc2c(NCCCc3ccccc3)c(F)c(N)c3c(=O)c(C(N)=O)cn1c23` [Example 106], the IC50 is under 100 nM. `CCOc1ccc(CCCNc2c(F)c(N)c3c(=O)c(C(=O)O)cn4c3c2OC[C@@H]4C)cc1OCC` [Example 98]: the IC50 was under 100 nM. For `Cc1ccc(OCCNc2c(F)c(N)c3c(=O)c(C(=O)O)cn4c3c2OC[C@@H]4C)cc1` [compound 77], the IC50 was 100 to 500 nM. Consider `CC1(C)COc2c(NCCNc3cccc(F)n3)c(F)c(N)c3c(=O)c(C(=O)O)cn1c23` [compound 35], for which the IC50 is under 100 nM.

In the case of `CC(C)c1ccc(OCCNc2c(F)c(N)c3c(=O)c(C(=O)O)cn4c3c2OC[C@@H]4C)cc1` [compound 78], the IC50 fell in the range of 100 to 500 nM. Consider `CC(CCc1ccc(Cl)cc1)Nc1c(F)c(N)c2c(=O)c(C(=O)O)cn3c2c1OC[C@@H]3C` (stereo partly drawn) [compound 71], for which the IC50 is under 100 nM.

As for `CC(COc1ccc(Cl)cc1)Nc1c(F)c(N)c2c(=O)c(C(=O)O)cn3c2c1OC[C@@H]3C` (stereo partly drawn) [compound 74], the IC50 fell in the range of 500 to 1000 nM.

Regarding `C[C@H]1COc2c(NCCNc3ccccn3)c(F)c(N)c3c(=O)c(C#N)cn1c23` [Example 110], the half-maximal inhibitory concentration (IC50) was under 100 nM. Regarding `Cc1nn(C)c(C)c1CCCNc1c(F)c(N)c2c(=O)c(C(=O)O)cn3c2c1OC[C@@H]3C` [Example 92], the IC50 is under 100 nM. As to `C[C@H]1COc2c(NCCc3ccncc3)c(F)c(N)c3c(=O)c(C(=O)O)cn1c23` [compound 22], the IC50 lay in the range of 100 to 500 nM. For the molecule `C[C@H]1COc2c(NCCOc3ccc(C(=O)O)cc3)c(F)c(N)c3c(=O)c(C(=O)O)cn1c23` [Example 105], the IC50 was under 100 nM.

For the molecule `Cc1cc(OCCNc2c(F)c(N)c3c(=O)c(C(=O)O)cn4c3c2OC[C@@H]4C)ccc1Cl` [compound 84], the IC50 is under 100 nM.
